Experimental data: patent US8354443B2, “Cyclopropane indolinone derivatives” (Hoffmann-La Roche Inc., priority 2009, dated 2013)

Test system: recombinant AMPK proteins (α1β1γ1, α2β1γ1, α1(1-335), α1(1-394) or α2(1-394))
Experiment: Scintillation Proximity Assay (AMPK activation)
Type: biochemical, human
Settings: effective concentration of activator for 50% of maximal enzyme activity; 2 hr at 30° C.; AMPK form not specified
From the text: Recombinant human AMPK α1β1γ1, α2β1γ1 or AMPK a subunit truncations α1 (1-335), α1 (1-394) and α2(1-394) were constructed, expressed and purified as described previously (Pang, T., Zhang, Z. S., Gu, M., Qiu, B. Y., Yu, L. F., Cao, P. R., Shao, W., Su, M. B., Li, J. Y., Nan, F. J., and Li, J. (2008) or purchased from Invitrogen (San Diego, Calif., U.S.A.). Rat liver AMPK heterotrimer enzyme was obtained from Upstate (Billerica, Mass., U.S.A.).
Before the Scintillation Proximity Assay (SPA) assay, 200 nM recombinant AMPK proteins (α1β1γ1, α2β1γ1, α1(1-335), α1(1-394) or α2(1-394)) were fully phosphorylated as described previously (Pang et al., 2008). SPA reactions were performed in 96-well plates at a final volume of 50 μl containing 20 mM Tris-HCl pH 7.5, 5 mM MgCl2, 1 mM DTT, 2 μM biotin-SAMS, 2 μM ATP, 0.2 μCi/well [γ-^33P]ATP, and various amount of activator. Reactions were initiated by the addition of 50 nM recombinant AMPK proteins to the reaction solutions and incubated at 30° C. for 2 hr. After that, reactions were terminated by the addition of 40 μl stop solution containing 80 μg streptavidin-coated SPA beads per well, 50 mM EDTA, 0.1% Triton X-100 in PBS, pH 7.5 and incubated for 1 hr. Finally, a 160 μl suspension solution containing 2.4 M CsCl, 50 mM EDTA, and 0.1% Triton X-100 in PBS (pH 7.5) was added to the reaction solution to suspend SPA beads completely. SPA signals were determined with a Wallac MicroBeta plate counter (PerkinElmer) 30 min later for calculation of the amount of product formed. The amount of products formed in 2 hr was plotted against activator concentrations to determine the effective concentration of the activator (EC50) required for 50% of maximal enzyme activity.

SMILES: CS(=O)(=O)N1CCN(C(=O)c2cccc(N3C(=O)[C@]4(C[C@H]4c4ccc(Cl)cc4)c4ccccc43)c2)CC1 (racemic) [Example 87, (1S,2S) and (1R,2R)-2-(4-chlorophenyl)-1′-(3-(4-(methylsulfonyl)piperazine-1-carbonyl)phenyl)spiro[cyclopropane-1,3′-indolin]-2′-one]
- EC50: 6730 nM

SMILES: Cc1cc(NC(=O)c2cccc(CN3C(=O)[C@@]4(C[C@H]4c4ccc(Cl)cc4)c4ccccc43)c2)[nH]n1 (racemic) [Example 67, (1R,2S) and (1S,2R)-3-((2-(4-chlorophenyl)-2′-oxospiro[cyclopropane-1,3′-indoline]-1′-yl)methyl)-N-(3-methyl-1 H-pyrazol-5-yl)benzamide]
- EC50: 2290 nM

SMILES: O=C(O)c1cccc(CN2C(=O)[C@]3(C[C@H]3c3ccccc3C(F)(F)F)c3ccccc32)c1 (racemic) [Example 12, (1S,2S) and (1R,2R)-3-((2′-oxo-2-(2-(trifluoromethyl)phenyl)-spiro[cyclopropane-1,3′-indoline]-1′-yl)methyl)benzoic acid]
- EC50: 2360 nM

SMILES: CC(C)N1CCN(C(=O)c2cccc(CN3C(=O)[C@]4(C[C@@H]4c4ccc(Cl)cc4)c4ccccc43)c2)CC1 (racemic) [Example 65, (1S,2R) and (1R,2S)-2-(4-chlorophenyl)-1′-(3-(4-isopropylpiperazine-1-carbonyl)benzyl)spiro[cyclopropane-1,3′-indolin]-2′-one]
- EC50: 1710 nM

SMILES: N#Cc1ccc([C@@H]2C[C@]23C(=O)N(Cc2cccc(C(=O)O)c2)c2ccccc23)cc1 (racemic) [Example 17, (1S,2S) and (1R,2R)-3-((2-(4-cyanophenyl)-2′-oxospiro[cyclopropane-1,3′-indoline]-1′-yl)methyl)benzoic acid]
- EC50: 1630 nM

SMILES: O=C(O)c1cccc(CN2C(=O)[C@@]3(C[C@@H]3c3ccc(Cl)cc3)c3cc(Br)ccc32)c1 (racemic) [Example 15, (1R,2R) and (1S,2S)-3-((5′-bromo-2-(4-chlorophenyl)-2′-oxospiro[cyclopropane-1,3′-indoline]-1′-yl)methyl)benzoic acid]
- EC50: 2480 nM

SMILES: CN(C)[C@H]1CCN(CCN2C(=O)[C@]3(C[C@@H]3c3ccc(Cl)cc3)c3ccccc32)C1 (mixture of isomers) [Example 76, (1S,2R)-2-(4-chlorophenyl)-1′-(2-((S)-3-(dimethylamino)pyrrolidin-1-yl)ethyl)spiro[cyclopropane-1,3′-indolin]-2′-one and (1R,2S)-2-(4-chlorophenyl)-1′-(2-((S)-3-(dimethylamino)pyrrolidin-1-yl)ethyl)spiro[cyclopropane-1,3′-indolin]-2′-one]
- EC50: 1090 nM

SMILES: CN1CCCC1CCNC(=O)c1cccc(CN2C(=O)[C@]3(C[C@@H]3c3ccc(Cl)cc3)c3ccccc32)c1 (stereo partly drawn) [Example 66, 3-(((1S,2R)-2-(4-chlorophenyl)-2′-oxospiro[cyclopropane-1,3′-indoline]-1′-yl)methyl)-N-(2-((S)-1-methylpyrrolidin-2-yl)ethyl)benzamide and 3-(((1R,2S)-2-(4-chlorophenyl)-2′-oxospiro[cyclopropane-1,3′-indoline]-1′-yl)methyl)-N-(2-((5)-1-methylpyrrolidin-2-yl)ethyl)benzamide]
- EC50: 1070 nM

SMILES: CS(=O)(=O)c1ccc([C@H]2C[C@]23C(=O)N(Cc2cccc(C(=O)O)c2)c2ccccc23)cc1 (racemic) [Example 7, (1S,2R) and (1R,2S)-3-((2-(4-(methylsulfonyl)phenyl)-2′-oxospiro[cyclopropane-1,3′-indoline]-1′-yl)methyl)benzoic acid]
- EC50: 10800 nM

SMILES: CN1CCN(C(=O)c2cccc(N3C(=O)[C@]4(C[C@H]4c4ccc(Cl)cc4)c4ccccc43)c2)CC1 (racemic) [Example 86, (1S,2S) and (1R,2R)-2-(4-chlorophenyl)-1′-(3-(4-methylpiperazine-1-carbonyl)phenyl) Spiro[cyclopropane-1,3′-indolin]-2′-one]
- EC50: 1730 nM
